pIC50: −log10 of the molar value.
System: 922993-354-T-J3-PDC complex spheroid viability
Experiment: Anticancer human tumor 922993-354-T-J3-PDC patient-derived endometrial carcinoma cell line growth inhibition [POLQ]
Conditions: for pIC50: curve of first compound; for viability, T/C: stronger effect = lower value
Method: Multicellular complex tumor spheroid response to Polymerase (POL) inhibitors (novobiocin, ART-558, RP6685) in combination with a variety of drugs and investigational agents in selected tumor cell lines
The POL inhibitors (novobiocin, ART-558, and RP6685) were evaluated both individually and in combination with standard of care and investigational anticancer small molecules within a complex spheroid model of solid tumors. . Complex spheroids include a stromal component modeled by human endothelial cells (HUVEC) and fibroblasts modeled by human mesenchymal stem cells (MSCs). The concentration ranges selected for each drug and investigational agent were based upon clinically achievable concentrations if the clinical Cmax of the agent was known.
Compounds. The drugs and investigational agents: novobiocin (NSC847541), ART-558 (NSC835418), RP-6685 (NSC848927), peposertib (NSC802822), ceralasertib (NSC780249), elimusertib (NSC800525), camonsertib (NSC841442), AZD-1390 (NSC803789), olaparib (NSC753686), talazoparib (NSC767125), rucaparib (NSC756644), sotorasib (NSC818433), MRTX-1133 (NSC836407), SN-38 (NSC673596), topotecan (NSC609699), epotoside (NSC141540), doxorubicin (NSC123127), gemcitabine (NSC613327), 5-fluorouracil (NSC19893), paclitaxel (NSC125973), vemurafenib (NSC761431), MSA-2 (NSC828583), SN-011 (NSC837082), adavosertib (NSC754352), prexasertib (NSC758257), carboplatin (NSC241240) and oxaliplatin (NSC266046), were obtained from the National Cancer Institute (NCI) Developmental Therapeutics Program Chemical Repository (21). The FDA-approved anticancer drug set is available from the Developmental Therapeutics Program at https://dtp.cancer.gov/organization/dscb/obtaining/. […] The stock solutions were prepared in dimethyl sulfoxide (DMSO, Sigma-Aldrich, St. Louis, MO, cat. D2650), except for the platinum compounds which were prepared in saline (Quality Biological, Gaithersburg, MD, cat. 114-055-101), at 800-fold the tested concentration and stored at -70 degrees C prior to their use. All drugs and investigational agents were tested over a range starting from a high concentration at or near the clinical Cmax and decreasing in half-log increments. If the clinical Cmax for an agent had not been determined, the highest concentration tested was 10 microM, except for SN-38, which was tested at a high concentration of 1 microM.
Cell Culture. All cells were maintained in an incubator at 37 degrees C and 5% CO2 with 95% humidity. The PDC lines were cultured according to standard operating procedures established by the NCI PDMR (https://pdmr.cancer.gov). Table 3 of the manuscript, lists the cell lines along with the number of the three cell types plated to form the mct-spheroids and media for tumor cell growth. After thawing, all PDC lines, except 997537-175-T-J1-PDC and 415267-285-R-J2-PDC, were cultured in Matrigel-coated flasks prepared with a working solution of 1X Ham's F-12 nutrient mix, without supplementation (Thermo Fisher Scientific, cat. 11765054), 100 U/mL penicillin-streptomycin (Thermo Fisher Scientific, cat. 15140122), and 2.5% Matrigel (Corning Inc., Corning, NY, cat. 354248) for the first three passages. The two PDC lines 997537-175-T-J1-PDC and 415267-285-R-J2-PDC were cultured on uncoated flasks. The 857933-349-R-J2-PDC line was cultured in 6C/Colon 1B media containing advanced DMEM/F-12 (Thermo Fisher Scientific, cat. 12634028), 10 mM HEPES (Thermo Fisher Scientific, cat. 15630080), 1X GlutaMAX supplement (Thermo Fisher Scientific, cat. 35050061), 0.1 mg/mL primocin (InvivoGen, San Diego, CA, cat. ant-pm-2), 10% defined fetal bovine serum, heat inactivated (HyClone Laboratories Inc., Logan, UT, cat. SH30070.03HI), 50% L-WRN conditioned media (ATCC, cat. CRL-3276), 1.25 mM N-Acetyl-L-cysteine (Sigma-Aldrich, cat. A9165), 10 mM nicotinamide (Sigma-Aldrich, cat. N0636), 1X B-27 supplement (Thermo Fisher Scientific, cat. 17504044), 1X N-2 supplement (Thermo Fisher Scientific, cat. […]

[1] = second compound 0.0316 µM, first compound 0.0316 µM
[2] = second compound 0.0316 µM, first compound 0.1 µM
[3] = second compound 0.0316 µM, first compound 0.316 µM
[4] = second compound 0.0316 µM, first compound 1 µM
[5] = second compound 0.0316 µM, first compound 3.16 µM
[6] = second compound 0.0316 µM, first compound 10 µM
[7] = second compound 0.1 µM, first compound 0.0316 µM
[8] = second compound 0.1 µM, first compound 0.1 µM
[9] = second compound 0.1 µM, first compound 0.316 µM
[10] = second compound 0.1 µM, first compound 1 µM
[11] = second compound 0.1 µM, first compound 3.16 µM
[12] = second compound 0.1 µM, first compound 10 µM
[13] = second compound 0.316 µM, first compound 0.0316 µM
[14] = second compound 0.316 µM, first compound 0.1 µM
[15] = second compound 0.316 µM, first compound 0.316 µM
[16] = second compound 0.316 µM, first compound 1 µM
[17] = second compound 0.316 µM, first compound 3.16 µM
[18] = second compound 0.316 µM, first compound 10 µM
[19] = second compound 1 µM, first compound 0.0316 µM
[20] = second compound 1 µM, first compound 0.1 µM
[21] = second compound 1 µM, first compound 0.316 µM
[22] = second compound 1 µM, first compound 1 µM
[23] = second compound 1 µM, first compound 3.16 µM
[24] = second compound 1 µM, first compound 10 µM
[25] = second compound 3.16 µM, first compound 0.0316 µM
[26] = second compound 3.16 µM, first compound 0.1 µM
[27] = second compound 3.16 µM, first compound 0.316 µM
[28] = second compound 3.16 µM, first compound 1 µM
[29] = second compound 3.16 µM, first compound 3.16 µM
[30] = second compound 3.16 µM, first compound 10 µM
[31] = second compound 10 µM, first compound 0.0316 µM
[32] = second compound 10 µM, first compound 0.1 µM
[33] = second compound 10 µM, first compound 0.316 µM
[34] = second compound 10 µM, first compound 1 µM
[35] = second compound 10 µM, first compound 3.16 µM
[36] = second compound 10 µM, first compound 10 µM
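Note: spheroids exposed to the agents for one week.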
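Throughout, for viability, T/C: 100% = DMSO vehicle control wells.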

**Q.** `COc1cc(C2c3cc4c(cc3C(OC3OC5COC(C)OC5C(O)C3O)C3COC(=O)C23)OCO4)cc(OC)c1O` (centres undefined) + COC1C(OC(N)=O)C(O)C(Oc2ccc3c(O)c(NC(=O)c4ccc(O)c(CC=C(C)C)c4)c(=O)oc3c2C)OC1(C)C was tested. Which pIC50 (second compound 0.0316 µM) did it give?
**A.** 5.22

**Q.** What about the pIC50 (second compound 0.1 µM) of the same compound?
**A.** 5.11

**Q.** What about the pIC50 (second compound 0.316 µM) of the same compound?
**A.** 5.08

**Q.** And the pIC50 (second compound 1 µM)?
**A.** 5.15

**Q.** What about the pIC50 (second compound 3.16 µM) of the same compound?
**A.** 5.15

**Q.** What about the pIC50 (second compound 10 µM) of the same compound?
**A.** 5.11

**Q.** What about the viability, T/C [1] of the same compound?
**A.** 98%

**Q.** And the viability, T/C [2]?
**A.** 91%

**Q.** What about the viability, T/C [3] of the same compound?
**A.** 100%

**Q.** What about the viability, T/C [4] of the same compound?
**A.** 98.6%

**Q.** What about the viability, T/C [5] of the same compound?
**A.** 74.1%

**Q.** And the viability, T/C [6]?
**A.** 30.7%

**Q.** And the viability, T/C [7]?
**A.** 99.7%

**Q.** And the viability, T/C [8]?
**A.** 89.4%

**Q.** And the viability, T/C [9]?
**A.** 93.9%

**Q.** What about the viability, T/C [10] of the same compound?
**A.** 88.3%

**Q.** What about the viability, T/C [11] of the same compound?
**A.** 72.9%

**Q.** What about the viability, T/C [12] of the same compound?
**A.** 43.2%

**Q.** And the viability, T/C [13]?
**A.** 107%

**Q.** What about the viability, T/C [14] of the same compound?
**A.** 97.7%

**Q.** And the viability, T/C [15]?
**A.** 106%

**Q.** And the viability, T/C [16]?
**A.** 90%

**Q.** And the viability, T/C [17]?
**A.** 69.6%

**Q.** And the viability, T/C [18]?
**A.** 46.4%

**Q.** What about the viability, T/C [19] of the same compound?
**A.** 96.2%

**Q.** And the viability, T/C [20]?
**A.** 93.8%

**Q.** What about the viability, T/C [21] of the same compound?
**A.** 91.9%

**Q.** And the viability, T/C [22]?
**A.** 89.2%

**Q.** What about the viability, T/C [23] of the same compound?
**A.** 72.9%

**Q.** What about the viability, T/C [24] of the same compound?
**A.** 39.5%

**Q.** What about the viability, T/C [25] of the same compound?
**A.** 99.7%

**Q.** And the viability, T/C [26]?
**A.** 97.7%

**Q.** What about the viability, T/C [27] of the same compound?
**A.** 89.2%

**Q.** And the viability, T/C [28]?
**A.** 88.6%

**Q.** And the viability, T/C [29]?
**A.** 81.8%

**Q.** What about the viability, T/C [30] of the same compound?
**A.** 37.1%

**Q.** What about the viability, T/C [31] of the same compound?
**A.** 72.1%

**Q.** What about the viability, T/C [32] of the same compound?
**A.** 84.5%

**Q.** And the viability, T/C [33]?
**A.** 89.4%

**Q.** And the viability, T/C [34]?
**A.** 76.1%

**Q.** And the viability, T/C [35]?
**A.** 85.1%

**Q.** And the viability, T/C [36]?
**A.** 41.6%

**Q.** What does the source list for `COc1cccc2c1C(=O)c1c(O)c3c(c(O)c1C2=O)CC(O)(C(=O)CO)CC3OC1CC(N)C(O)C(C)O1` (centres undefined) + COC1C(OC(N)=O)C(O)C(Oc2ccc3c(O)c(NC(=O)c4ccc(O)c(CC=C(C)C)c4)c(=O)oc3c2C)OC1(C)C?
**A.** pIC50 (second compound 0.0316 µM): 5.87; pIC50 (second compound 0.1 µM): 6.00; pIC50 (second compound 0.316 µM): 5.97; pIC50 (second compound 1 µM): 6.05; pIC50 (second compound 3.16 µM): 6.05; pIC50 (second compound 10 µM): 6.14; viability, T/C [1]: 104%; viability, T/C [2]: 88.8%; viability, T/C [3]: 80.7%; viability, T/C [4]: 53.3%; viability, T/C [5]: 33.9%; viability, T/C [6]: 10.1%; viability, T/C [7]: 97.2%; viability, T/C [8]: 101%; viability, T/C [9]: 88.6%; viability, T/C [10]: 48%; viability, T/C [11]: 21.8%; viability, T/C [12]: 8.62%; viability, T/C [13]: 105%; viability, T/C [14]: 91.9%; viability, T/C [15]: 77.3%; viability, T/C [16]: 50.7%; viability, T/C [17]: 28.7%; viability, T/C [18]: 12.9%; viability, T/C [19]: 102%; viability, T/C [20]: 96.1%; viability, T/C [21]: 68.7%; viability, T/C [22]: 45.8%; viability, T/C [23]: 30.9%; viability, T/C [24]: 10.7%; viability, T/C [25]: 94.5%; viability, T/C [26]: 100%; viability, T/C [27]: 87.1%; viability, T/C [28]: 44.7%; viability, T/C [29]: 21.6%; viability, T/C [30]: 10.8%; viability, T/C [31]: 86.4%; viability, T/C [32]: 90.8%; viability, T/C [33]: 68.7%; viability, T/C [34]: 41.1%; viability, T/C [35]: 22.8%; viability, T/C [36]: 10.4%

From PubChem BioAssay AID1963830 (Molecular Pharmacology Branch, DTP, NCI, 2024)
